One assay deals with PI3K-gamma (Homo sapiens, UniProt P48736). Nature of the assay: PI3K-gamma fluorescence polarization assay. The note with it: read-out: IC50 PI3Kγ.
The next assay addresses PI3K-alpha (Homo sapiens, UniProt P42336). Nature of the assay: PI3K-alpha fluorescence polarization assay. Particulars: read-out: IC50 PI3Kα. On the technique in general: In fluorescence polarisation assays a small probe gives low polarisation when free and higher when bound to something large.

These results are taken from patent publication US8748421B2, “Triazine compounds as P13 kinase and MTOR inhibitors” (Wyeth LLC, priority 2009, dated 2014).

A value given as a limit tells only on which side of the number the result lay.

For orientation: IC50 means the point on the concentration scale where inhibition reaches its midpoint.

Sequence of PI3K-alpha (P42336 whole entry, species assumed): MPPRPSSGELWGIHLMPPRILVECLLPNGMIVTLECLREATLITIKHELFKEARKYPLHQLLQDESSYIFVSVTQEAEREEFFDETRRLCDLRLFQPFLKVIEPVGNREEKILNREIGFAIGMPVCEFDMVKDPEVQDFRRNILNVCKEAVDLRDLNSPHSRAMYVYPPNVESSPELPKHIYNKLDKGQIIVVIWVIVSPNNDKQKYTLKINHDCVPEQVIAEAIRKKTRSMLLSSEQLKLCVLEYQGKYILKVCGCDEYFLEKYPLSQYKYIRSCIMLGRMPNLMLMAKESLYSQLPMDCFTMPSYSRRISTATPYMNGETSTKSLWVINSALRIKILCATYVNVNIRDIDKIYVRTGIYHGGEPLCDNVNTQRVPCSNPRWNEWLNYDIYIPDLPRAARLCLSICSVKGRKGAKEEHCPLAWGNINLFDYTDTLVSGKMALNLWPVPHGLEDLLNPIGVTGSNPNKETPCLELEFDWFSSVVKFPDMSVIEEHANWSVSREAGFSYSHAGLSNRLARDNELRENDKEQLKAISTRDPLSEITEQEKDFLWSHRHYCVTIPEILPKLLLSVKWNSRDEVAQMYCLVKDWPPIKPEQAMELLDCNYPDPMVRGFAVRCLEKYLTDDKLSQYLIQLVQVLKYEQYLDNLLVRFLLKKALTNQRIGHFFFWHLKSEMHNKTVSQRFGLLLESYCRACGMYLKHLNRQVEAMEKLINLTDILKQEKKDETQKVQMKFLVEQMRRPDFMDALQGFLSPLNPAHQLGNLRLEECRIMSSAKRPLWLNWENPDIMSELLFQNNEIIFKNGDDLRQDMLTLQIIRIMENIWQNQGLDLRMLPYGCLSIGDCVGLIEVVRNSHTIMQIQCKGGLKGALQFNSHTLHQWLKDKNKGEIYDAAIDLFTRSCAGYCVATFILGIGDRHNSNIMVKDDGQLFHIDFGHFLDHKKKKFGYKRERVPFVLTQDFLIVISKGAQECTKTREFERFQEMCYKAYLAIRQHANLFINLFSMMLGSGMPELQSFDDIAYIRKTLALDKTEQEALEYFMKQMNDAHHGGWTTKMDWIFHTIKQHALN
Sequence of PI3K-alpha (P27986 whole entry partner, species assumed): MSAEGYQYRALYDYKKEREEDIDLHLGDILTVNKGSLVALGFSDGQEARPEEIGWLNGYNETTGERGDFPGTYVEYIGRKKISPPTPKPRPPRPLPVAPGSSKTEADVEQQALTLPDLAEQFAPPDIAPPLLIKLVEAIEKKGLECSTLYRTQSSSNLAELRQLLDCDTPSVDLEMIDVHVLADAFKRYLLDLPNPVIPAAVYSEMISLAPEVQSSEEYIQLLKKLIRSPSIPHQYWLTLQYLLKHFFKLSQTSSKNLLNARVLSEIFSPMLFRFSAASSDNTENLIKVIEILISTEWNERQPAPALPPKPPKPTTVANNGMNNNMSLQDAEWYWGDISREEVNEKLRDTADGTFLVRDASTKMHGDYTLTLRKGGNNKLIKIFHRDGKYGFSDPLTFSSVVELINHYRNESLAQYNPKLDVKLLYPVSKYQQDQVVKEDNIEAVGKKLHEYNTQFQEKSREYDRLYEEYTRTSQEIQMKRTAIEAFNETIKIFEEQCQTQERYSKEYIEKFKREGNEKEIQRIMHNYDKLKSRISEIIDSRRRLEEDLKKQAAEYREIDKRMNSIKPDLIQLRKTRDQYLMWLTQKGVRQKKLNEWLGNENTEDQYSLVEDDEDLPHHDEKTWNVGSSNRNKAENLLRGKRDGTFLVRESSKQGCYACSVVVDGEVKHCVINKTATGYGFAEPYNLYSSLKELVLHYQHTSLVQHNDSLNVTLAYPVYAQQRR
Sequence of PI3K-gamma (P48736 whole entry, species assumed): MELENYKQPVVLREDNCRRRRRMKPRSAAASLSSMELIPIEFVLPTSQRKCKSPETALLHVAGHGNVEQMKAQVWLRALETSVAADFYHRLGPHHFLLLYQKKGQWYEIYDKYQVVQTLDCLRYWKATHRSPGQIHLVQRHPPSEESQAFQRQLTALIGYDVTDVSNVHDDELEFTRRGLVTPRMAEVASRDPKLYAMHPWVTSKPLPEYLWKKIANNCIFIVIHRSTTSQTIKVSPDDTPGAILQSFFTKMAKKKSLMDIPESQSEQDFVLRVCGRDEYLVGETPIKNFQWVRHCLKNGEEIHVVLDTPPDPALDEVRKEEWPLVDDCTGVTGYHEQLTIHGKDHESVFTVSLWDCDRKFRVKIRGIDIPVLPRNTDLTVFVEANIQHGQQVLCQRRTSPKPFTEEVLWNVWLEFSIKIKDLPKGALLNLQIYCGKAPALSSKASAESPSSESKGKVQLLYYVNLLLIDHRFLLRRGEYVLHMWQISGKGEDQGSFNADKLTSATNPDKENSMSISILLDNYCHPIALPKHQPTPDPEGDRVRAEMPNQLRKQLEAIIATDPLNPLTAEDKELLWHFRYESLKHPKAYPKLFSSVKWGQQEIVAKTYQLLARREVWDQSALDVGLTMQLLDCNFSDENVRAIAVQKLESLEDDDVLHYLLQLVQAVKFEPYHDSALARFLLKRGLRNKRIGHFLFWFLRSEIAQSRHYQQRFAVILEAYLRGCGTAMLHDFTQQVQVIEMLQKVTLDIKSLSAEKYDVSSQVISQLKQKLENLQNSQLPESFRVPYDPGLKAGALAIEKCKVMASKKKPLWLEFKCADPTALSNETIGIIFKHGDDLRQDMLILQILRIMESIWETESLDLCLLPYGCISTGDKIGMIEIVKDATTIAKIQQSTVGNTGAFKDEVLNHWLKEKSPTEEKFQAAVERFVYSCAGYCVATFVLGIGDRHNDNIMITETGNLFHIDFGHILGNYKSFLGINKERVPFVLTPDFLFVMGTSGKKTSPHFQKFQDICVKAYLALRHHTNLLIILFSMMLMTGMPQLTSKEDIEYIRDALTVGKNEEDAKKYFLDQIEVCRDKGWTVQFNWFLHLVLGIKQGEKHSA

Turning to “1-[4-(4,6-dimorpholin-4-yl-1,3,5-triazin-2-yl)phenyl]-3-[3-(1-hydroxyethyl)phenyl]urea [Example 88]”, the IC50 amounted to 74 nM at PI3K-gamma and 8 nM on PI3K-alpha.

For `COc1ccc(NC(=O)Nc2ccc(-c3nc(N4CCOCC4)nc(N4CCOCC4)n3)cc2)c(OC)c1` [Example 7, 1-(2,4-dimethoxyphenyl)-3-[4-(4,6-dimorpholin-4-yl-1,3,5-triazin-2-yl)phenyl]-urea], on PI3K-gamma, the IC50 is more than 100000 nM.

As for `Cc1ccc(NC(=O)Nc2ccc(-c3nc(NC4CN(C(=O)OC(C)(C)C)C4)nc(N4CCOCC4)n3)cc2)cc1` [Example 16, tert-butyl 3-{[4-(4-{[(4-methylphenyl)carbamoyl]amino}phenyl)-6-morpholin-4-yl-1,3,5-triazin-2-yl]amino}azetidine-1-carboxylate], the IC50 at PI3K-gamma was more than 100000 nM.

For the compound `O=C(Nc1ccc(-c2nc(N3CCOCC3)nc(N3CCOCC3)n2)cc1)Nc1ccc(C(O)(C(F)(F)F)C(F)(F)F)cc1` [Example 86, 1-[4-(4,6-dimorpholin-4-yl-1,3,5-triazin-2-yl)phenyl]-3-{4-[2,2,2-trifluoro-1-hydroxy-1-(trifluoromethyl)ethyl]phenyl}urea], the values for the IC50 at PI3K-gamma and on PI3K-alpha were 444 nM and 122 nM, respectively.

With `CN1CCN(c2ccc(NC(=O)Nc3ccc(-c4nc(-c5ccc(NC(=O)NC6CC6)cc5)nc(N5CC6CCC(C5)O6)n4)cc3)cc2)CC1` [Example 146, 1-cyclopropyl-3-(4-{4-[4-({[4-(4-methylpiperazin-1-yl)phenyl]carbamoyl}amino)phenyl]-6-(8-oxa-3-azabicyclo[3.2.1]oct-3-yl)-1,3,5-triazin-2-yl}phenyl)urea], the half-maximal inhibitory concentration (IC50) at PI3K-gamma is more than 100000 nM.

Turning to `CCN(CC)CCOC(=O)c1ccc(NC(=O)Nc2ccc(-c3nc(N4CCOCC4)nc(N4C5CCC4COC5)n3)cc2)cc1` [Example 675, 2-(diethylamino)ethyl 4-[({4-[4-morpholin-4-yl-6-(3-oxa-8-azabicyclo[3.2.1]oct-8-yl)-1,3,5-triazin-2-yl]phenyl}carbamoyl)amino]benzoate], the values for the IC50 on PI3K-gamma and on PI3K-alpha were 136 nM and 21 nM, respectively.

Turning to `CN1CCN(C(=O)c2ccc(NC(=O)Nc3ccc(-c4nc(C5CCOCC5)nc(N5CCOCC5)n4)cc3)cc2)CC1` [Example 830, 1-{4-[(4-methylpiperazin-1-yl)carbonyl]phenyl}-3-{4-[4-morpholin-4-yl-6-(tetrahydro-2H-pyran-4-yl)-1,3,5-triazin-2-yl]phenyl}urea], the IC50 at PI3K-alpha was found to be 2.12 nM.

On to `CN(C)[C@@H]1CCN(C(=O)c2ccc(NC(=O)Nc3ccc(-c4nc(N5CCOCC5)nc(N5CCOCC5)n4)cc3)cc2)C1` [Example 831, 1-(4-{[(3R)-3-(dimethylamino)pyrrolidin-1-yl]carbonyl}phenyl)-3-[4-(4,6-dimorpholin-4-yl-1,3,5-triazin-2-yl)phenyl]urea], for which the IC50 on PI3K-alpha came out at 0.95 nM.

Turning to `CC(C)N1CCN(C(=O)c2ccc(NC(=O)Nc3ccc(-c4nc(C5CCOCC5)nc(N5CCOCC5)n4)cc3)cc2)CC1` [Example 833, 1-(4-{[4-(1-methylethyl)piperazin-1-yl]carbonyl}phenyl)-3-{4-[4-morpholin-4-yl-6-(tetrahydro-2H-pyran-4-yl)-1,3,5-triazin-2-yl]phenyl}urea], the IC50 came to 8.25 nM on PI3K-gamma and 2.58 nM on PI3K-alpha.

Consider `CN(C)CCN(C)C(=O)c1ccc(NC(=O)Nc2ccc(-c3nc(C4CCOCC4)nc(N4CCOCC4)n3)cc2)cc1` [Example 834, N-[2-(dimethylamino)ethyl]-N-methyl-4-[({4-[4-morpholin-4-yl-6-(tetrahydro-2H-pyran-4-yl)-1,3,5-triazin-2-yl]phenyl}carbamoyl)amino]benzamide], for which the IC50 is 10 nM on PI3K-gamma and 0.75 nM at PI3K-alpha.

Consider `O=C(Nc1ccncc1)Nc1ccc(-c2nc(OC3CNC3)nc(N3CCOCC3)n2)cc1` [Example 835, 1-{4-[4-(azetidin-3-yloxy)-6-morpholin-4-yl-1,3,5-triazin-2-yl]phenyl}-3-pyridin-4-ylurea], for which the IC50 on PI3K-gamma was found to be 18.5 nM; on PI3K-alpha, 4.15 nM.

On to `CC(C)NC(=O)N1CC(Oc2nc(-c3ccc(NC(=O)Nc4ccncc4)cc3)nc(N3CCOCC3)n2)C1` [Example 836, N-(1-methylethyl)-3-[(4-morpholin-4-yl-6-{4-[(pyridin-4-ylcarbamoyl)amino]phenyl}-1,3,5-triazin-2-yl)oxy]azetidine-1-carboxamide], for which the concentration for half-maximal inhibition (IC50) was found to be 17.5 nM at PI3K-gamma and 5 nM on PI3K-alpha.

In the case of `CC(=O)NC1CCN(C(=O)c2ccc(NC(=O)Nc3ccc(-c4nc(N5CCOC[C@@H]5C)nc(N5CCOC[C@@H]5C)n4)cc3)cc2)CC1` [Example 837, N-{1-[(4-{[(4-{4,6-bis[(3S)-3-methylmorpholin-4-yl]-1,3,5-triazin-2-yl}phenyl)carbamoyl]amino}phenyl)carbonyl]piperidin-4-yl}acetamide], the IC50 on PI3K-gamma amounted to 75 nM; at PI3K-alpha, 11.9 nM.

Take `CC(C)N1CCCN(C(=O)c2ccc(NC(=O)Nc3ccc(-c4nc(N5CCOC[C@@H]5C)nc(N5CCOC[C@@H]5C)n4)cc3)cc2)CC1` [Example 838, 1-(4-{4,6-bis[(3S)-3-methylmorpholin-4-yl]-1,3,5-triazin-2-yl}phenyl)-3-(4-{[4-(1-methylethyl)-1,4-diazepan-1-yl]carbonyl}phenyl)urea]: the half-maximal inhibitory concentration (IC50) on PI3K-gamma was 24.5 nM; on PI3K-alpha, 4.95 nM.

`C[C@H]1COCCN1c1nc(-c2ccc(NC(=O)Nc3ccc(C(=O)N4C5CCC4COC5)cc3)cc2)nc(N2CCOC[C@@H]2C)n1` [Example 839, 1-(4-{4,6-bis[(3S)-3-methylmorpholin-4-yl]-1,3,5-triazin-2-yl}phenyl)-3-[4-(3-oxa-8-azabicyclo[3.2.1]oct-8-ylcarbonyl)phenyl]urea]: the results for the IC50 on PI3K-gamma and on PI3K-alpha were 29 nM and 6.65 nM, respectively.

As to `C[C@H]1COCCN1c1nc(-c2ccc(NC(=O)Nc3ccc(C(=O)N4CCC(C#N)CC4)cc3)cc2)nc(N2CCOC[C@@H]2C)n1` [Example 840, 1-(4-{4,6-bis[(3S)-3-methylmorpholin-4-yl]-1,3,5-triazin-2-yl}phenyl)-3-{4-[(4-cyanopiperidin-1-yl)carbonyl]phenyl}urea], the IC50 at PI3K-gamma was 15 nM; on PI3K-alpha, 5.15 nM.

As to `C[C@H]1COCCN1c1nc(-c2ccc(NC(=O)Nc3ccc(C(=O)N4CC[C@H](N(C)C)C4)cc3)cc2)nc(N2CCOC[C@@H]2C)n1` [Example 841, 1-(4-{4,6-bis[(3S)-3-methylmorpholin-4-yl]-1,3,5-triazin-2-yl}phenyl)-3-(4-{[(3S)-3-(dimethylamino)pyrrolidin-1-yl]carbonyl}phenyl)urea], the concentration for half-maximal inhibition (IC50) on PI3K-gamma is 108 nM.

Consider `C[C@H]1COCCN1c1nc(-c2ccc(NC(=O)Nc3ccc(C(=O)N4CC[C@@H](N(C)C)C4)cc3)cc2)nc(N2CCOC[C@@H]2C)n1` [Example 842, 1-(4-{4,6-bis[(3S)-3-methylmorpholin-4-yl]-1,3,5-triazin-2-yl}phenyl)-3-(4-{[(3R)-3-(dimethylamino)pyrrolidin-1-yl]carbonyl}phenyl)urea], for which the results for the IC50 at PI3K-gamma and on PI3K-alpha were 54.5 nM and 3.55 nM, respectively.

On to `CC(C)N1CCCN(c2nc(-c3ccc(NC(=O)Nc4ccc(C(=O)N5CC[C@H](N(C)C)C5)cc4)cc3)nc(N3CCOCC3)n2)CC1` [Example 843, 1-(4-{[(3S)-3-(dimethylamino)pyrrolidin-1-yl]carbonyl}phenyl)-3-(4-{4-(morpholin-4-yl)-6-[4-(propan-2-yl)-1,4-diazepan-1-yl]-1,3,5-triazin-2-yl}phenyl)urea], for which the IC50 on PI3K-gamma was 291 nM; on PI3K-alpha it was 28.5 nM.
